What was measured:
[1] = tested on: barnyardgrass; experiment: Test A pre-/postemergence herbicide test; format: in vivo, Echinochloa crus-galli
Procedure, shortened: (§1)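 Seeds sown in sandy loam received a preemergence directed soil spray of compound in non-phytotoxic solvent with surfactant; postemergence plants (2–10 cm, one- to two-leaf stage) were sprayed to runoff at the same time. After ~10 days in greenhouse, injury was rated visually versus untreated controls (0 = no effect, 100 = complete control).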

[2] = tested on: large crabgrass; experiment: Test A pre-/postemergence herbicide test; format: in vivo, Digitaria sanguinalis
Procedure, shortened: as §1

[3] = tested on: giant foxtail; experiment: Test A pre-/postemergence herbicide test; format: in vivo, Setaria faberi
Procedure, shortened: as §1

[4] = tested on: morningglory; experiment: Test A pre-/postemergence herbicide test; format: in vivo, Ipomoea spp.
Procedure, shortened: as §1

[5] = tested on: redroot pigweed; experiment: Test A pre-/postemergence herbicide test; format: in vivo, Amaranthus retroflexus
Procedure, shortened: as §1

[6] = tested on: velvetleaf; experiment: Test A pre-/postemergence herbicide test; format: in vivo, Abutilon theophrasti
Procedure, shortened: as §1

[7] = tested on: barnyardgrass; experiment: Test B pre-/postemergence herbicide test; format: in vivo, Echinochloa crus-galli; details: for Barnyardgrass plant response rating: postemergence
Procedure, shortened: (§2)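 Greenhouse pot assay with simultaneous preemergence (treated seed) and postemergence (2–18 cm seedlings) applications of surfactant-containing, non-phytotoxic solvent formulations. Response scored visually 13–15 days later on a 0–100 scale, 100 meaning complete control.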

[8] = tested on: Surinam grass; experiment: Test B pre-/postemergence herbicide test; format: in vivo, Urochloa decumbens; details: for Surinam Grass plant response rating: postemergence
Procedure, shortened: (§3)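 Formulation: non-phytotoxic solvent mix with surfactant. Timing: preemergence on seed and postemergence on 2–18 cm plants, applied concurrently. Readout after 13–15 d greenhouse: visual 0–100 control rating against controls.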

[9] = tested on: cocklebur; experiment: Test B pre-/postemergence herbicide test; format: in vivo, Xanthium strumarium; details: for Cocklebur plant response rating: postemergence
Procedure, shortened: as §2

[10] = tested on: corn; experiment: Test B pre-/postemergence herbicide test; format: in vivo, Zea mays; details: for Corn plant response rating: postemergence
Procedure, shortened: as §3

[11] = tested on: large crabgrass; experiment: Test B pre-/postemergence herbicide test; format: in vivo, Digitaria sanguinalis; details: for Crabgrass, Large plant response rating: postemergence
Procedure, shortened: as §3

[12] = tested on: giant foxtail; experiment: Test B pre-/postemergence herbicide test; format: in vivo, Setaria faberi; details: for Foxtail, Giant plant response rating: postemergence
Procedure, shortened: as §3

[13] = tested on: lambsquarters; experiment: Test B pre-/postemergence herbicide test; format: in vivo, Chenopodium album; details: for Lambsquarters plant response rating: postemergence
Procedure, shortened: as §3

[14] = tested on: morningglory; experiment: Test B pre-/postemergence herbicide test; format: in vivo, Ipomoea coccinea; details: for Morningglory plant response rating: postemergence
Procedure, shortened: as §2

[15] = tested on: pigweed; experiment: Test B pre-/postemergence herbicide test; format: in vivo, Amaranthus retroflexus; details: for Pigweed plant response rating: postemergence
Procedure, shortened: as §3

[16] = tested on: rice; experiment: Test B pre-/postemergence herbicide test; format: in vivo, Oryza sativa; details: 0 = no effect, 100 = complete control, preemergence
Procedure, shortened: as §3

[17] = tested on: velvetleaf; experiment: Test B pre-/postemergence herbicide test; format: in vivo, Abutilon theophrasti; details: for Velvetleaf plant response rating: postemergence
Procedure, shortened: as §3

[18] = tested on: blackgrass; experiment: Test B postemergence herbicide test; format: in vivo, Alopecurus myosuroides; details: postemergence
Procedure, shortened: (§4)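 Greenhouse test; postemergence application to plants at 1–4 leaves (2–18 cm); paddy species at 2 leaves; evaluated visually vs controls at 13–15 days; scale 0–100 (100 = complete control).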

[19] = tested on: wheat; experiment: Test B postemergence herbicide test; format: in vivo, Triticum aestivum; parameters: key to Wheat plant response rating: 0 = no effect, 100 = complete control; details: postemergence
Procedure, shortened: (§5)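 Read-out: visual comparison with controls, scored 0 to 100, where 100 means complete control and 0 no effect. Formulated chemicals were applied postemergence to plants 2–18 cm tall (1- to 4-leaf), or to flooded-paddy plants at the 2-leaf stage, then held 13 to 15 days under glass.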

[20] = tested on: wild oat; experiment: Test B postemergence herbicide test; format: in vivo, Avena fatua; details: postemergence
Procedure, shortened: as §5

[21] = tested on: rice; experiment: Test B flooded paddy test; format: in vivo, Oryza sativa; details: 1000 g ai/ha, scale 0 to 100 (0 no effect, 100 complete control)
Procedure, shortened: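 Scale 0–100: zero equals no visible effect, 100 complete control, judged by eye relative to controls. Timing: 13 to 15 days in greenhouse post-treatment. Growth stage at spraying: two leaves (paddy) or one to four leaves, 2–18 cm (postemergence).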

[22] = tested on: small flower umbrella sedge; experiment: Test B flooded paddy test; format: in vivo, Cyperus difformis; details: 1000 g ai/ha, scale 0 to 100 (0 no effect, 100 complete control)
Procedure, shortened: as §4

[23] = tested on: ducksalad; experiment: Test B flooded paddy test; format: in vivo, Heteranthera limosa; details: 1000 g ai/ha, scale 0 to 100 (0 no effect, 100 complete control)
Procedure, shortened: as §4

[24] = tested on: barnyardgrass; experiment: Test B flooded paddy test; format: in vivo, Echinochloa crus-galli; details: 1000 g ai/ha, scale 0 to 100 (0 no effect, 100 complete control)
Procedure, shortened: as §4

[25] = Postemergence, 500 g ai/ha, 0 to 100 scale, 0 no effect, 100 complete control
[26] = Postemergence, 2000 g ai/ha, 0 to 100 scale, 0 no effect, 100 complete control
[27] = Preemergence, 2000 g ai/ha, visual rating, 0 to 100 scale (0 no effect, 100 complete control)
[28] = preemergence, 500 g ai/ha, visual injury, 0 to 100 scale (0 no effect, 100 complete control)
[29] = 125 g ai/ha, 0 = no effect, 100 = complete control, preemergence
[30] = 125 g ai/ha, visual rating, scale 0 (no effect) to 100 (complete control)
[31] = 500 g ai/ha, visual rating, 0 = no effect, 100 = complete control, preemergence
[32] = 500 g ai/ha, scale 0 to 100, 0 is no effect, 100 is complete control

C#CCNC(=O)c1cncc(NC(=O)c2cc(C(C)(C)C)nn2CC)n1 [Compound 289]
Barnyardgrass plant response rating [1, 25]: 10 | Plant response rating, Barnyardgrass [1, 26]: 40 | Barnyardgrass plant response rating [1, 27]: 50 | Barnyardgrass plant response rating [1, 28]: 0 | Crabgrass, Large plant response rating [2, 25]: 20 | Plant response rating, Crabgrass, Large [2, 26]: 20 | Crabgrass, Large plant response rating [2, 27]: 55 | Crabgrass, Large plant response rating [2, 28]: 0 | Foxtail, Giant plant response rating [3, 25]: 10 | Plant response rating, Foxtail, Giant [3, 26]: 70 | Foxtail, Giant plant response rating [3, 27]: 40 | Foxtail, Giant plant response rating [3, 28]: 10 | Morningglory plant response rating [4, 25]: 10 | Plant response rating, Morningglory [4, 26]: 20 | Morningglory plant response rating [4, 27]: 15 | Morningglory plant response rating [4, 28]: 0 | Pigweed plant response rating [5, 25]: 20 | Plant response rating, Pigweed [5, 26]: 50 | Pigweed plant response rating [5, 27]: 75 | Pigweed plant response rating [5, 28]: 0 | Velvetleaf plant response rating [6, 25]: 0 | Plant response rating, Velvetleaf [6, 26]: 5 | Velvetleaf plant response rating [6, 27]: 20 | Velvetleaf plant response rating [6, 28]: 0 | Barnyardgrass plant response rating (0 to 100 scale) [7, 29]: 0 | Barnyardgrass plant response rating [7, 30]: 0 | Plant response rating, Barnyardgrass [7, 31]: 0 | Barnyardgrass plant response rating [7, 32]: 0 | Surinam Grass plant response rating (0 to 100 scale) [8, 29]: 0 | Surinam Grass plant response rating [8, 30]: 0 | Plant response rating, Surinam Grass [8, 31]: 0 | Surinam Grass plant response rating [8, 32]: 0 | Cocklebur plant response rating (0 to 100 scale) [9, 29]: 0 | Cocklebur plant response rating [9, 30]: 0 | Plant response rating, Cocklebur [9, 31]: 0 | Cocklebur plant response rating [9, 32]: 0 | Corn plant response rating (0 to 100 scale) [10, 29]: 0 | Corn plant response rating [10, 30]: 0 | Plant response rating, Corn [10, 31]: 0 | Corn plant response rating [10, 32]: 0 | Crabgrass, Large plant response rating (0 to 100 scale) [11, 29]: 0 | Crabgrass, Large plant response rating [11, 30]: 0 | Plant response rating, Crabgrass, Large [11, 31]: 20 | Crabgrass, Large plant response rating [11, 32]: 0 | Foxtail, Giant plant response rating (0 to 100 scale) [12, 29]: 0 | Foxtail, Giant plant response rating [12, 30]: 20 | Plant response rating, Foxtail, Giant [12, 31]: 0 | Foxtail, Giant plant response rating [12, 32]: 60 | Lambsquarters plant response rating (0 to 100 scale) [13, 29]: 0 | Lambsquarters plant response rating [13, 30]: 0 | Plant response rating, Lambsquarters [13, 31]: 100 | Lambsquarters plant response rating [13, 32]: 30 | Morningglory plant response rating (0 to 100 scale) [14, 29]: 0 | Morningglory plant response rating [14, 30]: 0 | Plant response rating, Morningglory [14, 31]: 0 | Morningglory plant response rating [14, 32]: 0 | Pigweed plant response rating (0 to 100 scale) [15, 29]: 0 | Pigweed plant response rating [15, 30]: 10 | Plant response rating, Pigweed [15, 31]: 100 | Pigweed plant response rating [15, 32]: 20 | Rice plant response rating (0 to 100 scale) ([16]; 125 g ai/ha): 0 | Plant response rating, Rice ([16]; 500 g ai/ha, visual rating): 0 | Velvetleaf plant response rating [17, 30]: 0 | Plant response rating, Velvetleaf [17, 31]: 0 | Velvetleaf plant response rating [17, 32]: 10 | Blackgrass plant response rating [18, 30]: 10 | Blackgrass plant response rating [18, 32]: 10 | Wheat plant response rating [19, 30]: 20 | Wheat plant response rating [19, 32]: 20 | Oat, Wild plant response rating [20, 30]: 20 | Oat, Wild plant response rating [20, 32]: 30 | Rice plant response rating [21]: 0 | Sedge, Umbrella plant response rating [22]: 0 | Ducksalad plant response rating [23]: 0 | Barnyardgrass plant response rating [24]: 0

— patent US20060069132A1, “Azolecarboxamide herbicides” (priority 2004, published 2006)
